# Measured values reported in ChEMBL document CHEMBL5325414, “Novel neuroprotective pyromeconic acid derivatives with concurrent anti-Aβ deposition, anti-inflammatory, and anti-oxidation properties for treatment of Alzheimer's disease” (Eur J Med Chem, 2023).
# Active and inactive are the calls of the source. The rule behind the calls is not given here.
# Legend:
# Mus musculus [1] = test: Antioxidant activity in scopolamine induced cognitive impaired mouse assessed as increase of GSH level in cortex at 20 mg/kg; type: functional, organism-based
# BV-2 [2] = test: Antiinflammatory activity in LPS induced mouse BV-2 cells decrease in release of […] at 5 uM by […] (reference value: 100%); type: functional
# [3] = Drug concentration in hippocampus of Sprague-Dawley rat at 15 mg/kg, IG measured after 1 hrs; type: ADME, organism-based; conditions: po, read-out: Drug uptake
# Mus musculus [4] = test: In vivo effect on HO-1 expression in scopolamine induced cognitive impaired mouse assessed as reversal of NRF2 signalling in hippocampus treated at 20 mg/kg by immunoblot analysis; type: functional, organism-based
# Mus musculus [5] = test: Neuroprotective effect in scopolamine induced cognitively impaired mouse assessed as recovery of decreased Nissl bodies in CA1 region at hippocampus at 20 mg/kg by Nissl staining analysis; type: functional, organism-based
# [6] = Metal chelating activity assessed as compound-Ca2+ complex formation by optical shift at 50 uM in PBS buffer 7.4 by UV-vis spectrometric analysis
# Mus musculus [7] = test: Cognitive enhancement in scopolamine induced ICR alzheimer's disease mouse assessed as gain in body weight pretreated with scopolamine at 3 mg/kg, ip for 31 days followed by compound addition at 20 mg/kg, po at day 7 to 31; type: functional, organism-based; conditions: time 25.0 day
# [8] = target: T1, Amyloid-beta precursor protein (Homo sapiens, UniProt P05067); test: Inhibition of amyloid beta (1 to 42) (unknown origin) self aggregation assessed as low density in amyloid fibrils compound addition at 50 uM after fibrilation for 24 hrs
# T1 sequence (P05067 whole entry): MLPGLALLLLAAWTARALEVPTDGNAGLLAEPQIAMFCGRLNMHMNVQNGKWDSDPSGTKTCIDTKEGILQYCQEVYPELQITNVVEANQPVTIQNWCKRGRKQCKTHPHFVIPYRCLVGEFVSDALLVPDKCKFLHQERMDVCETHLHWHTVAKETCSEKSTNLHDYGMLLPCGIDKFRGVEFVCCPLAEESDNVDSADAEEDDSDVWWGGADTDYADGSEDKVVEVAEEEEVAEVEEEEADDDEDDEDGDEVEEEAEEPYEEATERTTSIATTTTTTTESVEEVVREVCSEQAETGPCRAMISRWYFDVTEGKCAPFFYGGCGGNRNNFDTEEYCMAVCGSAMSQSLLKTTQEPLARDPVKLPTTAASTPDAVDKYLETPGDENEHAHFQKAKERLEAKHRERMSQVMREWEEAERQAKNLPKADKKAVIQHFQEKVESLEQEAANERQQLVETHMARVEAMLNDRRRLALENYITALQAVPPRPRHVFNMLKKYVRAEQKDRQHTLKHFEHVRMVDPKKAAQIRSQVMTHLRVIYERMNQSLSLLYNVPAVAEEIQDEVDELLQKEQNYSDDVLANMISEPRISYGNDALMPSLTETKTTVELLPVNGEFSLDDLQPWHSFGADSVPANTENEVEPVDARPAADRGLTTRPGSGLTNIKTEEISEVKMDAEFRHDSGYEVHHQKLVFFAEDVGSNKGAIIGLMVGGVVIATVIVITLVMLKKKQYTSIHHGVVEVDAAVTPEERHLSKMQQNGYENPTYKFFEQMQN
# [9] = Drug concentration in hippocampus of Sprague-Dawley rat at 15 mg/kg, IG measured after 0.083 hrs; type: ADME, organism-based; conditions: po, read-out: Drug uptake
# [10] = Metal chelating activity assessed as compound-Fe2+ complex formation by measuring shift at 2:1 at 50 uM in PBS buffer 7.4 by UV-vis spectrometric analysis
# [11] = Acute toxicity in mouse assessed as histopathological change in spleen at 2000 mg/kg, IG administered as single dose measured after 14 days measured by H and E staining analysis; type: organism-based; conditions: in vivo, po, 336 h, time 14 day
# Mus musculus [12] = test: Anti alzheimer activity in scopolamine induced anxiety in ICR mouse assessed as decrease in motor trajectories pretreated with scopolamine at 3 mg/kg, ip for 31 days followed by compound addition at 20 mg/kg, po at day 7 to 31 by morris water maze test; type: functional, organism-based; conditions: time 25.0 day
# [13] = Drug concentration in hippocampus of Sprague-Dawley rat at 15 mg/kg, IG measured after 0.167 hrs; type: ADME, organism-based; conditions: po, read-out: Drug uptake
# BV-2 [14] = test: Effect on H2O2 induced reactive oxygen species in mouse BV-2 cells assessed as reduction of ROS generation at 20 uM by fluorescence microscopic analysis relative to control; type: functional; parameters: scale not given: the % may be the effect or the level left
# [15] = AUC(0 to t) in Sprague-Dawley rat at 15 mg/kg, IG; type: ADME, organism-based; parameters: dose 15 mg/kg, route ig; conditions: in vivo, po
# [16] = Ratio of drug concentration in hippocampus to plasma of Sprague-Dawley rat at 15 mg/kg, IG measured after 0.5 hrs; type: ADME, organism-based; conditions: po
# Mus musculus [17] = test: In vivo effect on NRF2 expression in scopolamine induced cognitive impaired mouse assessed as reversal of NRF2 signalling in hippocampus treated at 20 mg/kg by immunofluorescence analysis; type: functional, organism-based
# [18] = target: T1, Amyloid-beta precursor protein; test: Inhibition of amyloid beta (1 to 42) (unknown origin) self aggregation assessed as disaggregation relative to control; parameters: concentration or dose not given beside the values; conditions: concentration not given here
# BV-2 [19] = test: Effect of amyloid beta (1 to 42) indued apoptosis in mouse BV-2 cells assessed as late apoptotic cells at 2.5 uM measured by propidium iodide staining based flow cytometric analysis (reference value: 6.88%); type: functional
# Mus musculus [20] = test: In vivo antiinflammatory activity in scopolamine induced cognitive impaired ICR mouse assessed as decrease in GFAP levels in cortex; type: functional, organism-based
# Mus musculus [21] = test: Neuroprotective effect in scopolamine induced cognitively impaired mouse assessed as decrease in neuronal damage in CA1 region at hippocampus at 20 mg/kg by immunofluorescence staining analysis; type: functional, organism-based
# [22] = Drug concentration in hippocampus of Sprague-Dawley rat at 15 mg/kg, IG measured after 0.25 hrs; type: ADME, organism-based; conditions: po, read-out: Drug uptake
# BV-2 [23] = test: Neuroprotective activity against amyloid beta (1 to 42) induced neurotoxicity in mouse BV-2 cells assessed as survival of cells at 2.5 uM treated for 24 hrs relative to control; type: functional
# Mus musculus [24] = test: In vivo antiinflammatory activity in scopolamine induced cognitive impaired ICR mouse assessed as decrease in Iba1 levels in cortex; type: functional, organism-based
compound,measurement,setting,value
O=c1ccoc(/C=C/c2ccc(O)c(O)c2)c1O,Activity,Mus musculus [1],Active
same,Nitric oxide release (% of LPS control),BV-2 [2],86.32%
same,concentration at 1 h,[3],8.72 ng/mL
same,Activity,Mus musculus [4],Active
same,Activity,Mus musculus [5],Active
same,Activity,[6],inactive
same,Activity,Mus musculus [7],Active
same,Activity,[8],Active
same,concentration at 0.083 h,[9],1.14 ng/mL
same,Activity,[10],Active
same,Activity,[11],Non-Toxic
same,Activity,Mus musculus [12],Active
same,concentration at 0.167 h,[13],1.41 ng/mL
same,Activity,BV-2 [14],45.48%
same,AUC(0-t),[15],24.4 ng·h/mL
same,Kp at 0.5 h,[16],2.27
same,Activity,Mus musculus [17],Active
same,inhibition,[18],90.4%
same,Activity,BV-2 [19],10.2%
same,Activity,Mus musculus [20],Active
same,Activity,Mus musculus [21],Active
same,concentration at 0.25 h,[22],2.57 ng/mL
same,Activity,BV-2 [23],56.3%
same,Activity,Mus musculus [24],Active
